Reference: paper PMC12412615, “Tailored SirReal-type inhibitors enhance SIRT2 inhibition through ligand stabilization and disruption of NAD^+ co-factor binding” (RSC Medicinal Chemistry, 2025)

Experiments:
human SIRT5 = target: T1, human SIRT5 (Homo sapiens, UniProt Q9NXA8); test: Fluorescence-based sirtuin subtype selectivity assay, SIRT5, single dose 50 μM; assay type: biochemical; conditions: 50 μM compound; mean, n = 2
T1 construct: purchased Reaction Biology Corporation (Malvern, USA), contract assay
T1 sequence (Q9NXA8 37-310): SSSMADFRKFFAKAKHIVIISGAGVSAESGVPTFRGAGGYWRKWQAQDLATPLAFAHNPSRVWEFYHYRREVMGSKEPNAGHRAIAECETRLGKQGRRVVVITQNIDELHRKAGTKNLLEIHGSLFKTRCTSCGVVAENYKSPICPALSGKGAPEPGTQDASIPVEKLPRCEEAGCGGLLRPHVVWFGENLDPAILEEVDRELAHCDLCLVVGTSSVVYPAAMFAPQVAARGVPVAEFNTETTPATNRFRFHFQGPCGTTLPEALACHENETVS
Method: (§1) IC50 values against SIRT2 are given as mean with standard deviations (n = 3). Inhibition percentages at 50 μM for SIRT1, 3 and 5 are given as mean without standard deviations (n = 2)
(§2) The determination of subtype selectivity against SIRT1, 3 and 5 was performed by measuring the residual enzyme activity after treatment with the corresponding inhibitor at a fixed concentration of 50 μM and subsequent calculation of the percentage inhibition.
(§3) The determination of inhibitory activity on the corresponding sirtuin enzymes was carried out based on a fluorescence-based assay commissioned by Reaction Biology Corporation (Malvern, USA) following an internal experimental protocol. Test substances were prepared in DMSO, delivered into the respective enzyme mixture (prepared with reaction buffer: Tris-HCl, pH = 8) and incubated for 10 minutes at 30 °C. Subsequently the substrate mixture (NAD^+ and a 7-amino-4-methylcoumarin-based fluorogenic peptide substrate) was added to initiate the deacetylation reaction. After 2 hours incubation at 30 °C, 2 mM nicotinamide (universal sirtuin inhibitor, to stop the reaction) and protease-based developer (to generate fluorescence by the cleavage of 7-amino-4-methylcoumarin) was added. At 30 °C 1 hour later, the respective fluorescence was measured (extinction/emission = 360 nm/460 nm). The inhibitory effect of the test compounds is indirectly proportional to the amount of converted fluorescent substrate standardized as 100% activity of the control without inhibitor. The test substances were tested in 10-dose IC50 triplicate mode, with 3-fold serial dilution starting at 50 μM final reaction concentration and if necessary, starting at 100 μM. For each serially diluted replicate of the triplicate, an IC50 value was determined by sigmoidal curve fitting, resulting in three IC50 values, from which the mean and corresponding standard deviation were subsequently calculated. Data processing was performed based on Prism 8.0.2 software (GraphPad Software, Boston, USA). Subtype selectivity on SIRT1, SIRT3 and SIRT5 was evaluated in a single dose duplicate mode at 50 μM final test compound concentration according to previous outlined internal protocol of Reaction Biology Corporation by determining the enzyme activity of the respective sirtuins in % (no inhibitor control as 100% activity).

human SIRT1 = target: T2, human SIRT1 (Homo sapiens, UniProt Q96EB6); test: Fluorescence-based sirtuin subtype selectivity assay, SIRT1, single dose 50 μM; assay type: biochemical; conditions: 50 μM compound; mean, n = 2
T2 construct: purchased Reaction Biology Corporation (Malvern, USA), contract assay
T2 sequence (Q96EB6 1-747): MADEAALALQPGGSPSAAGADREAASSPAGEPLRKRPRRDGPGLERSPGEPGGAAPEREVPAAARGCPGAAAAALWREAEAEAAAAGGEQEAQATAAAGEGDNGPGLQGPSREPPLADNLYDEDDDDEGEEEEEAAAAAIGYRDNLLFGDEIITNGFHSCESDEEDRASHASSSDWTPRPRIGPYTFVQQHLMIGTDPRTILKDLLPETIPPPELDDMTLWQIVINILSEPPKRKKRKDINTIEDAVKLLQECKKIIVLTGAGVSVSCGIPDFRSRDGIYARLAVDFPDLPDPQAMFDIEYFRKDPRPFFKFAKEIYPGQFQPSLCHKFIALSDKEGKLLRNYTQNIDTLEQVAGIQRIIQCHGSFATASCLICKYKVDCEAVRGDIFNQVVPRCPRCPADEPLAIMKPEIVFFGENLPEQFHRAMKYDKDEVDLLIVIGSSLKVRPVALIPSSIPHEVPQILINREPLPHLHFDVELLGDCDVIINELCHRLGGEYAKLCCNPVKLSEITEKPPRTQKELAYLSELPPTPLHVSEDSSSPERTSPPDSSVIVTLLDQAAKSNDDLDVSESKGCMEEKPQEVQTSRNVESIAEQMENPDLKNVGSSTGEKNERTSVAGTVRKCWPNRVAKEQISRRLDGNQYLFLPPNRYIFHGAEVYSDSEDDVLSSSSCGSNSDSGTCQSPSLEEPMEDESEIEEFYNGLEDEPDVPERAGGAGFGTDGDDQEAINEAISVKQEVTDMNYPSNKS
Method: as §1, §2, §3

human SIRT3 = target: T3, human SIRT3 (Homo sapiens, UniProt Q9NTG7); test: Fluorescence-based sirtuin subtype selectivity assay, SIRT3, single dose 50 μM; assay type: biochemical; conditions: 50 μM compound; mean, n = 2
T3 construct: purchased Reaction Biology Corporation (Malvern, USA), contract assay
T3 sequence (Q9NTG7 1-399): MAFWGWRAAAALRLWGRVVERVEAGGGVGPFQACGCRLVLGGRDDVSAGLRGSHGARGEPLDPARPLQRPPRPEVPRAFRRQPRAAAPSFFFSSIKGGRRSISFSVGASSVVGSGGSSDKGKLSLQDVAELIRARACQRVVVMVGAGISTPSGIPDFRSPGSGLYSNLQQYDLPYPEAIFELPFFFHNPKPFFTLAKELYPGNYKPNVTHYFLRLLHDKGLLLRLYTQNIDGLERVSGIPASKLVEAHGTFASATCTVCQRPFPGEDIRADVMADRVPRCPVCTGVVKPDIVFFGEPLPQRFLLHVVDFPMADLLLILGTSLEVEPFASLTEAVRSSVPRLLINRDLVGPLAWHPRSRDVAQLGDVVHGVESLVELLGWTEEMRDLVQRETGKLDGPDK
Method: as §1, §2, §3

[1] = target: T4, NanoLuc-SIRT2 fusion construct (Homo sapiens, UniProt Q8IXJ6); test: NanoBRET cellular target engagement assay in HEK293T cells; assay type: cell-based; conditions: stable HEK293T cell line expressing NanoLuc-SIRT2; 2 μM tracer; 2 hours at 37 °C; read-out: NanoBRET EC50 (cellular SIRT2 target engagement)
T4 construct: HEK293T cells expressing the NanoLuc-tagged SIRT2(50-356) fusion protein were used; expressed in transfected cells; transient transfection for SH10
T4 sequence (Q8IXJ6 50-356): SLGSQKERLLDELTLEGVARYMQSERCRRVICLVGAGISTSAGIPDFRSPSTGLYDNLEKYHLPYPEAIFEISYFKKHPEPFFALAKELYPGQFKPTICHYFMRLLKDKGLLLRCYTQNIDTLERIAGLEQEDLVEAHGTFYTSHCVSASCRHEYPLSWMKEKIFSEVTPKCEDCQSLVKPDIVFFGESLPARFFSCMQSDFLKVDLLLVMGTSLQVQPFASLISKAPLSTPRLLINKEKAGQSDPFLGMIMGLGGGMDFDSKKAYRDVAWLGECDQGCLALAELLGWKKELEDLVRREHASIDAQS
Method: For the assay, cells were trypsinized, resuspended in Opti-MEM® reduced serum medium, and adjusted to a concentration of 2 × 10^5 cells per mL. […] Serially diluted inhibitor and tracer were added to the cell suspension, and 100 μL were seeded into 96-well white, sterile, nonbinding surface plates. […] For BRET measurements, NanoBRET NanoGlo Substrate (Promega cat. #N1571) was added to the wells according to the manufacturer's protocol. […] The BRET ratio was calculated as the ratio of acceptor to donor signal, and data were normalized to vehicle-treated controls. Apparent intracellular binding affinities (EC50 values) were determined by fitting dose–response curves using nonlinear regression analysis in GraphPad Prism.

inhibition at 50 µM (human SIRT5): 7% | inhibition at 50 µM (human SIRT1): 12% | inhibition at 50 µM (human SIRT3): 26% | EC50 [1]: 15 nM
SMILES: Cc1cc(C)nc(SCC(=O)Nc2cccc(COc3ccc(NC(=O)c4cnn(C)c4)c(Cl)c3)c2)n1 [Compound 29, N-(2-Chloro-4-((3-(2-((4,6-dimethylpyrimidin-2-yl)thio)acetamido)benzyl)oxy)phenyl)-1-methyl-1H-pyrazole-4-carboxamide]
